Experimental data as given in US8921312B2, “Combination of insulin and ascorbate to enhance wound healing” (University of South Florida, priority 2006, dated 2014).

Key:
collagen types I and V = assay: Collagen helix stability: pepsin digestion of culture medium, SDS-PAGE; format: cell-based, bovine; conditions: pepsin in 0.5M acetic acid
Experimental: Cell Culture-Keratocytes were isolated from adult bovine corneas using two sequential collagenase digestions as previously described (see […], and […]. Production of prostaglandin D synthase as a keratan sulfate proteoglycan by cultured bovine keratocytes Invest Ophthalmol Vis Sci. 2001; 42:1201-1207; which is incorporated herein by reference). […] Each sample received a second 50 μl aliquot from the pepsin stock, and digestion was allowed to continue for an additional six hours at 4° C. The samples were titrated with 1 N NaOH to pH 8.0 to inactivate the enzyme, dialyzed against water overnight, lyophilized, reconstituted in 1 X SDS running buffer and separated on 10% bis-tris gels under reducing conditions. The gels were stained with Safestain following the manufacturer's protocol.

keratocan = assay: Western blot of keratan sulfate proteoglycan accumulation in the medium: keratocan; format: cell-based, bovine
Experimental: (§1) Cell Culture-Keratocytes were isolated from adult bovine corneas using two sequential collagenase digestions as previously described (see […], and […]. Production of prostaglandin D synthase as a keratan sulfate proteoglycan by cultured bovine keratocytes Invest Ophthalmol Vis Sci. 2001; 42:1201-1207; which is incorporated herein by reference). […] Western blot analysis-Core protein and protein levels in the media were measured by Western blot as previously described. In brief, the culture media was collected from each culture condition, concentrated by spin filtration to one tenth or one fiftieth of the original volume. The size of the aliquot needed from each sample to provide a similar signal on film by Western blot was empirically determined. The measured pixel density was then divided by the DNA content of the culture equivalent to the amount loaded and expressed as pixel density per μg DNA. Blots were probed with polyclonal antibodies to bovine keratocan or lumican (diluted 1:1000) or prostaglandin D synthase (PGDS) (1:20,000). The lumican and keratocan antibodies are peptide antibodies raised against the core protein^48. The rabbit antiserum to bovine PGDS was a generous gift of Gary […] University). Membranes were rinsed and incubated for 1 hour in 1:10,000 horseradish peroxidase (HRP)-conjugated secondary IgG (GE Healthcare, Piscataway, N.J.). Protein bands were visualized using ECL (GE Healthcare, Piscataway, N.J.) on Kodak Bio-Max XAR X-ray film. Band density was measured using a Bio-Rad GS-710 Calibrated Imaging Densitometer (Bio-Rad, Hercules, Calif.).

lumican = assay: Western blot of keratan sulfate proteoglycan accumulation in the medium: lumican; format: cell-based, bovine
Experimental: as §1

[1] = system: prostaglandin D synthase (PGDS); assay: Western blot of keratan sulfate proteoglycan accumulation in the medium: PGDS; format: cell-based, bovine
Experimental: as §1, with “Membranes were rinsed and incubated for 1 hour in 1:10,000 horseradish peroxidase (HRP)-conjugated secondary IgG (GE Healthcare, Piscataway, N.J.). Protein bands were visualized using ECL (GE Healthcare, Piscataway, N.J.) on Kodak Bio-Max XAR X-ray film.” left out

cells = conditions: cited from earlier work
keratocytes [2] = assay: Keratocyte population growth in defined media (DNA content, Cyquant); format: cell-based, bovine; conditions: DMEM/F12; insulin 10 μg/ml, ascorbate 1 mM; days 1-10
Text: Cell Culture-Keratocytes were isolated from adult bovine corneas using two sequential collagenase digestions as previously described (see […], and […]. Production of prostaglandin D synthase as a keratan sulfate proteoglycan by cultured bovine keratocytes Invest Ophthalmol Vis Sci. 2001; 42:1201-1207; which is incorporated herein by reference). […] DNA quantitation-Cell layers were harvested on days 1, 4, 7 and 10 to measure DNA content using Cyquant (Invitrogen, Carlsbad, Calif.). Briefly, the cell layers were rinsed with PBS, frozen, thawed and solubilized in a lysis buffer supplemented with a DNA binding dye. The DNA content was determined at 480/535 nm by measuring 4 wells in triplicate and comparing the values to a calf thymus DNA standard. The DNA content of parallel cultures was measured for experiments that utilized the cell layer. Cell proliferation-Cultures were radiolabeled with 20 μCi ^3H-thymidine/ml of medium for 72 hours beginning on days 1 and 4. The labeled medium was removed upon harvesting, and the cell layers washed with cold PBS. The cell layers were processed as described under DNA quantitation. Incorporation into DNA was determined as previously described.

keratocytes [3] = assay: Collagen synthesis: 3H-glycine incorporation into collagenase-sensitive protein; format: cell-based, bovine; conditions: 3H-glycine 72 h
Experimental: Cell Culture—Keratocytes were isolated from adult bovine corneas using two sequential collagenase digestions as previously described (see Berryhill B L, Beales M P, and Hassell J R. Production of prostaglandin D synthase as a keratan sulfate proteoglycan by cultured bovine keratocytes Invest Ophthalmol Vis Sci. 2001; 42:1201-1207; which is incorporated herein by reference). Cells were plated in DMEM/F12 at high density (20,000 cells/cm^2) in 6-well plates (Costar, Cambridge, Mass.) and allowed to attach overnight at 37° C. in 5% CO2. The medium was changed the next day (day 1) and on days 4, 7 and 10 to fresh DMEM or DMEM supplemented with insulin (10 μg/ml), with or without 1 mM 2-phospho-L-ascorbic acid (ascorbate). Ethyl-3,4-dihydroxybenzoate (EDB) was added at 0.08 mM and 0.4 mM final concentration on day 1.
Collagen synthesis—The incorporation of ^3H-glycine into collagen was determined as previously described. In summary, cultures were incubated for 72 hours in medium containing 25 μCi ^3H-glycine/ml beginning on day 1. Media was adjusted to 4M guanidine HCl and the cell layers extracted in 4M guanidine HCl. Unincorporated isotope in media and cell layers was removed by chromatography on PD10 columns equilibrated and eluted with 4M guanidine HCl (GE Healthcare, Piscataway, N.J.). Fractions containing incorporated radioactivity were pooled, dialyzed against water and 400 μl aliquots incubated with or without 2.5 Units collagenase form III (Advanced Biofactures, Lynbrook, N.Y.) in collagenase digestion medium (3 mM N-ethyl maleimide, 50 mM Tris pH 7.5, 150 mM NaCl and 5 mM CaCl2) for 3 hours at 37° C. Undigested proteins were precipitated with carrier BSA using cold 10% TCA containing 0.5% tannic acid and released incorporated counts measured by liquid scintillation. The DNA content was determined as described above.

keratan sulfate = assay: Incorporation of 35SO4 into keratan sulfate (endo-β-galactosidase sensitive); format: cell-based, bovine; conditions: 72 h labeling; medium; CPM per μg DNA; vs control
Text: (§2) Cell Culture-Keratocytes were isolated from adult bovine corneas using two sequential collagenase digestions as previously described (see […], and […]. Production of prostaglandin D synthase as a keratan sulfate proteoglycan by cultured bovine keratocytes Invest Ophthalmol Vis Sci. 2001; 42:1201-1207; which is incorporated herein by reference). […] The medium was collected, frozen, lyophilized and reconstituted in 4 M guanidine HCl. Unincorporated isotope was removed using PD 10 columns Fractions containing incorporated ^35SO4 were combined and concentrated using Amicon Ultra spin-concentrators. Incorporation into CS and KS was determined by digestion with chondroitinase ABC or endo-β-galactosidase (Seikagaku, Associates of Cape Cod, E. Falmouth, Mass.) as previously described. Aliquots containing equivalent incorporated radioactivity were fractionated using a Superose 6 12/30 HR column (GE Healthcare, Piscataway, N.J.) equilibrated and eluted with 4M guanidine HCl (0.05 NaAc, pH6.5) at 0.3 ml/min Fractions (0.6 ml) were collected and incorporation measured by liquid scintillation counting. The levels of CS and KS in each fraction were determined as described above.

chondroitin sulfate = assay: Incorporation of 35SO4 into chondroitin sulfate (chondroitinase ABC sensitive); format: cell-based, bovine; conditions: 72 h labeling; medium; CPM per μg DNA; vs control
Text: as §2

[4] = 0.08 mM EDB in medium containing insulin and ascorbate, 72 hours, vs insulin+ascorbate
[5] = 0.4 mM EDB in medium containing insulin and ascorbate
[6] = medium day 4, pixel density per μg DNA, vs control

Molecule	Pepsin-resistant collagen bands in the medium with EDB (collagen types I and V; 0.4 mM EDB in insulin plus ascorbate medium)	Reduction of keratocan accumulation (keratocan; [4])	Keratocan accumulation in the medium (keratocan; [5])	Reduction of lumican accumulation (lumican; [4])	Lumican accumulation in the medium (lumican; [5])	PGDS level in the medium with EDB ([1]; EDB in medium containing insulin and ascorbate)	Toxicity to the cells (cells)	Cell number (DNA content) over 10-day culture period (keratocytes [2])	Total collagen synthesized, fold more compared to control (keratocytes [3]; day 1-4, insulin 10 μg/ml, ascorbate 1 mM, vs control medium)	Collagen in the cell layer, fold increase compared to control (keratocytes [3]; cell layer, vs control)	Collagen in the medium, fold increase compared to control (keratocytes [3]; medium, vs control)	Pepsin-resistant collagen (α1(I), α2(I), α1(V) bands) in the medium (collagen types I and V; SDS-PAGE)	Keratocan level in the medium, fold increase compared to control (keratocan; [6])	Lumican level in the medium, fold increase compared to control (lumican; [6])	PGDS level in the medium [1, 6]	35SO4 incorporation into KS, fold compared to control (keratan sulfate)	35SO4 incorporation into CS, fold compared to control (chondroitin sulfate)
CCOC(=O)c1ccc(O)c(O)c1 [EDB, Ethyl-3,4-dihydroxybenzoate]	absent	28%	levels below of those measured in insulin alone	19%	levels below of those measured in insulin alone	declined but the decrease was not significant	not toxic to the cells	–	–	–	–	–	–	–	–	–	–
insulin: insulin added at 10 μg/ml to defined DMEM medium for keratocyte culture	–	–	–	–	–	–	–	increased in number	4 fold	5 fold	3 fold	absent	no effect	no effect	neither ascorbate nor insulin affected PGDS levels	only minor changes	only minor changes
